Assay results: patent publication US20250179047A1, “5-[7-(3,4-DIHYDRO-1H-ISOQUINOLINE-2-CARBONYL)-1,2,3,4 TETRAHYDROISOQUINOLIN-6-YL]-1H-PYRROLE-3-CARBOXAMIDE DERIVATIVES, PHARMACEUTICAL COMPOSITIONS CONTAINING THEM AND THEIR USES AS PRO-APOPTOTIC AGENTS” (LES LABORATOIRES SERVIER, priority 2022, published 2025)
Read-outs that look alike come from different tables or passages of the source.

What was measured:
BCL2 WT = BCL2 WT (Homo sapiens (Human), UniProt P10415); test: TR-FRET competitive binding assay, BCL2 WT
Procedure, shortened: (§1)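 Terbium-labelled N-terminal Halo-fusion BCL2 or BCLXL (E. coli), 0.5 nM, competed against fluorescein-labelled PUMA peptide (2 or 20 nM) for 2 h at 23° C in 50 mM Hepes pH 7.5, 150 mM NaCl, 5% DMSO. TR-FRET 520/495 nm ratio gave IC50 by four-parameter fit; Ki derived from IC50.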

BCL2 G101V [1] = target: BCL2 G101V (Homo sapiens, UniProt P10415, G101V); test: TR-FRET competitive binding assay, BCL2 G101V; conditions: BCL2 G101V; Ki determined from IC50; read-out: TR_FRET EKI_Bcl2 G101V
Procedure, shortened: as §1

BCL2 G101V [2] = test: TR-FRET competitive binding assay, BCL2 G101V; design: species or system human; conditions: for TR_FRET EKI G101V/WT selectivty ratio: ratio Ki BCL2 G101V / Ki BCL2 WT
Procedure, shortened: as §1

BCL2 D103Y = BCL2 D103Y (Homo sapiens, UniProt P10415, D103Y); test: TR-FRET competitive binding assay, BCL2 D103Y; conditions: Ki determined from IC50, read-out: TR_FRET EKI_Bcl2 D103Y
Procedure, shortened: as §1

BCL2 F104I = BCL2 F104I (Homo sapiens, UniProt P10415, F104I); test: TR-FRET competitive binding assay, BCL2 F104I; conditions: Ki determined from IC50, read-out: TR_FRET EKI_Bcl2 F104I
Procedure, shortened: as §1

BCL2 D111A = BCL2 D111A (Homo sapiens, UniProt P10415, D111A); test: TR-FRET competitive binding assay, BCL2 D111A; conditions: Ki determined from IC50, read-out: TR_FRET EKI_Bcl2 D111A
Procedure, shortened: as §1

BCLXL WT = BCLXL WT (Homo sapiens (Human), UniProt Q07817); test: TR-FRET competitive binding assay, BCLXL WT; conditions: for Ki: BCLXL WT, Ki determined from IC50, read-out: TR_FRET EKI BclxL; for TR_FRET EKI BCLxL/WT selectivty ratio: ratio Ki BCLxL / Ki BCL2 WT
Chain of BCLXL WT (Q07817 other isoform, or with tags, fused parts or gaps): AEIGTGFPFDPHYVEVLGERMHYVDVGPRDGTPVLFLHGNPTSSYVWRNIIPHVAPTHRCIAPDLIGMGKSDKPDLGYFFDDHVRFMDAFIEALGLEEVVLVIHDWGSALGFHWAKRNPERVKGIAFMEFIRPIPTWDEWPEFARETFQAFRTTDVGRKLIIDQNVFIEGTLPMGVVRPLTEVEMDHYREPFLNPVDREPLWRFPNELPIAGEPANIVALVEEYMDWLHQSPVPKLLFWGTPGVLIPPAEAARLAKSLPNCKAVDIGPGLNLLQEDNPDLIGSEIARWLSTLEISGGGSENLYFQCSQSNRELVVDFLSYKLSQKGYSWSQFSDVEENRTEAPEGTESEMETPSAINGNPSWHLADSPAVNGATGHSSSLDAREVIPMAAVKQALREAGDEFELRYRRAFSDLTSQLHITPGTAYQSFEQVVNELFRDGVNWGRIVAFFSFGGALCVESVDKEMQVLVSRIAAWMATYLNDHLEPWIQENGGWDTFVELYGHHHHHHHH
Procedure, shortened: as §1

KMS-12-PE Bcl-2 WT = test: In vitro cytotoxicity CellTiter-Glo 48 h, KMS-12-PE Bcl-2 WT; assay type: cell-based; conditions: Homo sapiens, KMS-12-PE, C50 = concentration needed to reach 50% of the cellular viability
Procedure, shortened: (§2)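 Transduce KMS-12-PE with Bcl-2 WT or G101V lentivirus, then FACS-sort RFP-positive cells. Add compounds in an 11-point dilution series and incubate 48 h at 37 °C. Measure ATP-based luminescence with CellTiter-Glo and derive C50 (50% viability).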

KMS-12-PE Bcl-2 G101V = test: In vitro cytotoxicity CellTiter-Glo 48 h, KMS-12-PE Bcl-2 G101V; assay type: cell-based; conditions: for Ratio (G101V/WT): C50 KMS-12-PE Bcl-2 G101V over C50 KMS-12-PE Bcl-2 WT; for IC50: Homo sapiens, KMS-12-PE, 48 h, CellTiter-Glo, C50 = concentration needed to reach 50% of the cellular viability
Procedure, shortened: as §2

[3] = Ki determined from IC50, read-out: TR_FRET EKI_Bcl2 WT

Structure (SMILES) | Ki (BCL2 WT; [3]) [nM] | Ki (BCL2 G101V [1]) [nM] | TR_FRET EKI G101V/WT selectivty ratio (BCL2 G101V [2]) | Ki (BCL2 D103Y) [nM] | Ki (BCL2 F104I) [nM] | Ki (BCL2 D111A) [nM] | Ki (BCLXL WT) [nM] | TR_FRET EKI BCLxL/WT selectivty ratio (BCLXL WT) | Ki (BCL2 WT; Ki determined from IC50, read-out: TR_FRET EKI_Bcl2) [nM] | TR_FRET EKI G101V/WT selectivty (BCL2 G101V [2]; ratio of Ki BCL2 G101V to BCL2 WT) | TR_FRET EKI BCLxL/WT selectivty (BCLXL WT; ratio of Ki BCLxL to BCL2 WT) | IC50 (KMS-12-PE Bcl-2 WT) [µM] | Ratio (G101V/WT) (KMS-12-PE Bcl-2 G101V) | IC50 (KMS-12-PE Bcl-2 G101V) [µM]
Cc1c(N(C(=O)c2cc(-c3cc4c(cc3C(=O)N3Cc5ccccc5C[C@H]3CN3CCCCC3)CN(C(=O)Cc3ccc(OCCN5CCOC(C)(C)C5)cc3)CC4)n(C)c2C)c2ccc(O)cc2)cc(C#N)n1C [Example 121, N-(5-cyano-1,2-dimethyl-1H-pyrrol-3-yl)-5-[2-(2-{4-[2-(2,2-dimethylmorpholin-4-yl)ethoxy]phenyl}acetyl)-7-[(3S)-3-[(piperidin-1-yl)methyl]-1,2,3,4-tetrahydroisoquinoline-2-carbonyl]-1,2,3,4-tetrahydroisoquinolin-6-yl]-N-(4-hydroxyphenyl)-1,2-dimethyl-1H-pyrrole-3-carboxamide] | 0.16 | 0.5 | 3.2 | 0.34 | 0.56 | 0.23 | 6 | 38.5 | – | – | – | 0.0076 | 5.25 | 0.0397
Cc1c(N(C(=O)c2cc(-c3cc4c(cc3C(=O)N3Cc5ccccc5C[C@H]3CN3CCCCC3)CN(C(=O)Cc3ccc(OCCN5CCOCC5(C)C)cc3)CC4)n(C)c2C)c2ccc(O)cc2)cc(C#N)n1C [Example 148, N-(5-cyano-1,2-dimethylpyrrol-3-yl)-5-[2-(2-{4-[2-(3,3-dimethylmorpholin-4-yl)ethoxy]phenyl}acetyl)-7-{[(3S)-3-(piperidin-1-ylmethyl)-3,4-dihydro-1H-isoquinolin-2-yl]carbonyl}-3,4-dihydro-1H-isoquinolin-6-yl]-N-(4-hydroxyphenyl)-1,2-dimethylpyrrole-3-carboxamide] | 0.06 | 0.3 | 4.2 | 0.18 | 0.29 | 0.15 | 1.5 | 25.0 | – | – | – | 0.007 | 4.9286 | 0.0345
COc1ncc(N(C(=O)c2cc(-c3cc4c(cc3C(=O)N3Cc5ccccc5C[C@H]3C)CN(C(=O)Cc3ccc(OCCN5CCOCC5)cc3)CC4)n(C)c2C)c2ccc(O)cc2)cc1F [Example 72, N-(5-fluoro-6-methoxypyridin-3-yl)-N-(4-hydroxyphenyl)-1,2-dimethyl-5-(7-{[(3R)-3-methyl-3,4-dihydro-1H-isoquinolin-2-yl]carbonyl}-2-(2-{4-[2-(morpholin-4-yl)ethoxy]phenyl}acetyl)-3,4-dihydro-1H-isoquinolin-6-yl)pyrrole-3-carboxamide] | 0.14 | 0.9 | 6.1 | 0.37 | 1.17 | 0.21 | 3.7 | 26.4 | – | – | – | 0.0066 | 6.42 | 0.0427
Cc1c(N(C(=O)c2cc(-c3cc4c(cc3C(=O)N3Cc5ccccc5C[C@H]3CN3CCCCC3)CN(C(=O)Cc3ccc(OCCN(C)CCF)cc3F)CC4)n(C)c2C)c2ccc(O)cc2)cc(C#N)n1C [Example 134, N-(5-cyano-1,2-dimethyl-1H-pyrrol-3-yl)-5-{2-[2-(2-fluoro-4-{2-[(2-fluoroethyl)(methyl)amino]ethoxy}phenyl)acetyl]-7-[(3S)-3-[(piperidin-1-yl)methyl]-1,2,3,4-tetrahydroisoquinoline-2-carbonyl]-1,2,3,4-tetrahydroisoquinolin-6-yl}-N-(4-hydroxyphenyl)-1,2-dimethyl-1H-pyrrole-3-carboxamide] | 0.06 | 0.3 | 5.8 | 0.18 | 0.33 | 0.17 | 2.6 | 45.6 | – | – | – | 0.0058 | 4.6 | 0.0265
Cc1c(N(C(=O)c2cc(-c3cc4c(cc3C(=O)N3Cc5ccccc5C[C@H]3C)CN(C(=O)Cc3ccc(OCCN5CCOCC5)cc3Cl)CC4)n(C)c2C)c2ccc(O)cc2)cc(C#N)n1C [Example 46, 5-[2-(2-{2-chloro-4-[2-(morpholin-4-yl)ethoxy]phenyl}acetyl)-7-[(3R)-3-methyl-1,2,3,4-tetrahydroisoquinoline-2-carbonyl]-1,2,3,4-tetrahydroisoquinolin-6-yl]-N-(5-cyano-1,2-dimethyl-1H-pyrrol-3-yl)-N-(4-hydroxyphenyl)-1,2-dimethyl-1H-pyrrole-3-carboxamide] | 0.14 | 0.3 | 2.4 | 0.23 | 0.35 | 0.2 | 1.5 | 10.7 | – | – | – | 0.0051 | 5 | 0.0256
Cc1c(N(C(=O)c2cc(-c3cc4c(cc3C(=O)N3Cc5ccccc5C[C@H]3CN(C(C)C)C(C)C)CN(C(=O)Cc3ccc(OCCN5CCOCC5)cc3F)CC4)n(C)c2C)c2ccc(O)cc2)cc(C#N)n1C [Example 152, N-(5-cyano-1,2-dimethylpyrrol-3-yl)-5-(7-{[(3S)-3-[(diisopropylamino)methyl]-3,4-dihydro-1H-isoquinolin-2-yl]carbonyl}-2-(2-{2-fluoro-4-[2-(morpholin-4-yl)ethoxy]phenyl}acetyl)-3,4-dihydro-1H-isoquinolin-6-yl)-N-(4-hydroxyphenyl)-1,2-dimethylpyrrole-3-carboxamide] | 0.16 | 1.1 | 6.9 | 0.41 | 0.64 | 0.36 | 3.9 | 24.4 | – | – | – | 0.0105 | 3.5238 | 0.037

Stronger by Ki (BCL2 G101V [1]), values ahead:

Ki (BCL2 WT; [3]) [nM] | Ki (BCL2 G101V [1]) [nM] | TR_FRET EKI G101V/WT selectivty ratio (BCL2 G101V [2]) | Ki (BCL2 D103Y) [nM] | Ki (BCL2 F104I) [nM] | Ki (BCL2 D111A) [nM] | Ki (BCLXL WT) [nM] | TR_FRET EKI BCLxL/WT selectivty ratio (BCLXL WT) | Ki (BCL2 WT; Ki determined from IC50, read-out: TR_FRET EKI_Bcl2) [nM] | TR_FRET EKI G101V/WT selectivty (BCL2 G101V [2]; ratio of Ki BCL2 G101V to BCL2 WT) | TR_FRET EKI BCLxL/WT selectivty (BCLXL WT; ratio of Ki BCLxL to BCL2 WT) | Structure (SMILES) | IC50 (KMS-12-PE Bcl-2 WT) [µM] | Ratio (G101V/WT) (KMS-12-PE Bcl-2 G101V) | IC50 (KMS-12-PE Bcl-2 G101V) [µM]
– | 0.22 | – | 0.11 | 0.164 | 0.1 | 1.8 | – | 0.04 | 5.5 | 45 | Cc1c(N(C(=O)c2cc(-c3cc4c(cc3C(=O)N3Cc5ccccc5C[C@H]3CN3CCCCC3)CN(C(=O)Cc3ccc(OCCN5CCOCC5)cc3F)CC4)n(C)c2C)c2ccc(O)cc2)cc(C#N)n1C [Example 229] | 0.00502 | 4.4 | 0.0222
0.11 | 0.2 | 2.0 | 0.24 | 0.46 | 0.16 | 2 | 18.9 | – | – | – | Cc1c(N(C(=O)c2cc(-c3cc4c(cc3C(=O)N3Cc5ccccc5C[C@H]3C)CN(C(=O)Cc3ccc(OCCN5CCN(CC(F)F)CC5)cc3)CC4)n(C)c2C)c2ccc(O)cc2)cc(C#N)n1C [Example 47, N-(5-cyano-1,2-dimethyl-1H-pyrrol-3-yl)-5-{2-[2-(4-{2-[4-(2,2-difluoroethyl)piperazin-1-yl]ethoxy}phenyl)acetyl]-7-[(3R)-3-methyl-1,2,3,4-tetrahydroisoquinoline-2-carbonyl]-1,2,3,4-tetrahydroisoquinolin-6-yl}-N-(4-hydroxyphenyl)-1,2-dimethyl-1H-pyrrole-3-carboxamide] | 0.008 | 4.5 | 0.0362
0.05 | 0.2 | 4.3 | 0.18 | 0.16 | 0.14 | 1.9 | 41.3 | – | – | – | Cc1c(N(C(=O)c2cc(-c3cc4c(cc3C(=O)N3Cc5ccccc5C[C@H]3CN3CCCCC3)CN(C(=O)Cc3c(F)cc(OCCN5CCOCC5)cc3F)CC4)n(C)c2C)c2ccc(O)cc2)cc(C#N)n1C [Example 97, N-(5-cyano-1,2-dimethylpyrrol-3-yl)-5-[2-(2-{2,6-difluoro-4-[2-(morpholin-4-yl)ethoxy]phenyl}acetyl)-7-{[(3S)-3-(piperidin-1-ylmethyl)-3,4-dihydro-1H-isoquinolin-2-yl]carbonyl}-3,4-dihydro-1H-isoquinolin-6-yl]-N-(4-hydroxyphenyl)-1,2-dimethylpyrrole-3-carboxamide] | 0.0033 | 4.68 | 0.0158
